From ChEMBL document CHEMBL1124016, “Antihypertensive activity in a series of 1-piperazino-3-phenylindans with potent 5-HT2-antagonistic activity” (J Med Chem, 1988)

Tests used:
[1] = target: T1, Adrenergic receptor alpha-1 (Rattus norvegicus, UniProt P15823+P23944+P43140); test: Inhibition of [3H]prazosin binding to alpha-1 adrenergic receptor from rat cortical membranes; type: cell membranes, Membrane
T1 sequence (P15823 whole entry): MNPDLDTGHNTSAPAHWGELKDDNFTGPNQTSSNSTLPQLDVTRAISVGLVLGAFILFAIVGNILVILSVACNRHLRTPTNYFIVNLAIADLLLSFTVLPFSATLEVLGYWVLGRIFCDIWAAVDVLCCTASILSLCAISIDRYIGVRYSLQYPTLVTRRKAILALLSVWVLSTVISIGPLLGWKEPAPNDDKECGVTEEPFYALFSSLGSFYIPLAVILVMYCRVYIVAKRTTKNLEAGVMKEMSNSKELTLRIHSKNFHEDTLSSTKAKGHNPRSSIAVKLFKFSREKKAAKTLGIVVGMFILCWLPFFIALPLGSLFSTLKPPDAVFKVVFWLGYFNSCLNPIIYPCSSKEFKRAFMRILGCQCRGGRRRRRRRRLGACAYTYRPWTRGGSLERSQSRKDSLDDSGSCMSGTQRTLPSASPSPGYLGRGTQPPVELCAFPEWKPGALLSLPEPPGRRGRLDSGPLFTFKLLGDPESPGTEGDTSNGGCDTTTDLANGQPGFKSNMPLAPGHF
T1 sequence (P23944 whole entry): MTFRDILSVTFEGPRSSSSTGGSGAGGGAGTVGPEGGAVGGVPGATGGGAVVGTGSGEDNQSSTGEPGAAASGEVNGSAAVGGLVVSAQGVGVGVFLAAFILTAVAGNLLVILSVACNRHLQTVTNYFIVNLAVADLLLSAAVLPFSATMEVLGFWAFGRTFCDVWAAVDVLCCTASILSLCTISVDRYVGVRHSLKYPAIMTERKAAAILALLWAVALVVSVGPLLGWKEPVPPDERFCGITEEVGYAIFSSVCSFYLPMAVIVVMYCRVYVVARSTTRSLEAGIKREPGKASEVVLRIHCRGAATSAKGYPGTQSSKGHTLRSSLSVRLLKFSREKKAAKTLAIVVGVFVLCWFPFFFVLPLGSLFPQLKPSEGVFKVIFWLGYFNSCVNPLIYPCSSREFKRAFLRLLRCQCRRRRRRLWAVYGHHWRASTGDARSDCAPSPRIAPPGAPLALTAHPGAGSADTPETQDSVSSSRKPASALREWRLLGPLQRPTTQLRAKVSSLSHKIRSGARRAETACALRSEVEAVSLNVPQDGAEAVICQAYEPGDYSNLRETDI
T1 sequence (P43140 whole entry): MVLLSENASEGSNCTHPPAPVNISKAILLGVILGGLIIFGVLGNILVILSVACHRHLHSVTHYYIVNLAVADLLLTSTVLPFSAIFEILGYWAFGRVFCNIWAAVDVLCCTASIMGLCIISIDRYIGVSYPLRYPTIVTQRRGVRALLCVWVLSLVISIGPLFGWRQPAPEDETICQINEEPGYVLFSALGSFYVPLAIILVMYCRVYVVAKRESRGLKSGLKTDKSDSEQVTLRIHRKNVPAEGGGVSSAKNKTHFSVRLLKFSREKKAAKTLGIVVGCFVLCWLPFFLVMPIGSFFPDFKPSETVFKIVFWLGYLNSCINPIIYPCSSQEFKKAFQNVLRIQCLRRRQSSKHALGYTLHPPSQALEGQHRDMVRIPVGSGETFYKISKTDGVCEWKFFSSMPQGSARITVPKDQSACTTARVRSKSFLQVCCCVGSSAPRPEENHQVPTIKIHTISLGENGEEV

Rattus norvegicus [2] = organism: Rattus norvegicus; test: Ratio of phenylephrine ED50/ 5-HT ED50; type: functional
Rattus norvegicus [3] = test: Percent reduction of systolic arterial blood pressure(SAP) in spontaneously hypertensive rat after 10 min at intraperitoneal administration of 5 mg/kg; type: functional
[4] = target: Serotonin 2 (5-HT2) receptor (Rattus norvegicus, UniProt P30994+P08909+P14842); test: Inhibition of [3H]spiperone binding to 5-hydroxytryptamine 2 receptor from rat cortical membranes; type: cell membranes, Membrane
D(2) dopamine receptor = D(2) dopamine receptor (Rattus norvegicus, UniProt P61169); test: Inhibition of [3H]spiperone binding to Dopamine receptor D2 from rat striatal membranes; type: cell membranes, Membrane
Mus musculus = organism: Mus musculus; test: Inhibition of methyl phenidate induced stereotyped gnawing in mice; type: functional
Rattus norvegicus [5] = test: Inhibition of 5-HT induced pressor response in pithed rats, after intravenous administration, activity is expressed as ED50; type: functional
Rattus norvegicus [6] = test: Percent reduction of diastolic arterial blood pressure(DAP) in spontaneously hypertensive rat after 10 min at intraperitoneal administration of 5 mg/kg; type: functional
[7] = target: Sodium-dependent dopamine transporter (Rattus norvegicus, UniProt P23977); test: In vitro inhibition of [3H]dopamine uptake in rat brain synaptosomes; type: subcellular
Rattus norvegicus [8] = test: Inhibition of phenylephrine induced pressor response in pithed rats (following i.v. administration of […]); type: functional; details: route intravenous
Rattus norvegicus [9] = test: Inhibition of 5-HT induced pressor response in pithed rats, after intravenous administration of 0.02 mg/kg; type: functional
[10] = target: Sodium-dependent serotonin transporter (Rattus norvegicus, UniProt P31652); test: In vitro inhibition of [3H]5-HT transporter uptake in rat brain synaptosomes; type: subcellular
Rattus norvegicus [11] = test: Percent reduction of blood pressure in spontaneously hypertensive rat after 10 min at intraperitoneal administration of 5 mg/kg; type: functional
[12] = target: Norepinephrine transporter (Rattus norvegicus, UniProt Q9WTR4); test: In vitro inhibition of [3H]norepinephrine uptake in rat brain synaptosomes; type: subcellular
Rattus norvegicus [13] = organism: Rattus norvegicus; test: Inhibition of L-5-HTP (L-5-hydroxytryptophan) induced head twitches in rat; type: functional
Rattus norvegicus [14] = test: Inhibition of 5-HT induced pressor response in pithed rats, after intravenous administration; type: functional
[15] = Rattus norvegicus, read-out: ED50

Chain of Sodium-dependent serotonin transporter (P31652 whole entry): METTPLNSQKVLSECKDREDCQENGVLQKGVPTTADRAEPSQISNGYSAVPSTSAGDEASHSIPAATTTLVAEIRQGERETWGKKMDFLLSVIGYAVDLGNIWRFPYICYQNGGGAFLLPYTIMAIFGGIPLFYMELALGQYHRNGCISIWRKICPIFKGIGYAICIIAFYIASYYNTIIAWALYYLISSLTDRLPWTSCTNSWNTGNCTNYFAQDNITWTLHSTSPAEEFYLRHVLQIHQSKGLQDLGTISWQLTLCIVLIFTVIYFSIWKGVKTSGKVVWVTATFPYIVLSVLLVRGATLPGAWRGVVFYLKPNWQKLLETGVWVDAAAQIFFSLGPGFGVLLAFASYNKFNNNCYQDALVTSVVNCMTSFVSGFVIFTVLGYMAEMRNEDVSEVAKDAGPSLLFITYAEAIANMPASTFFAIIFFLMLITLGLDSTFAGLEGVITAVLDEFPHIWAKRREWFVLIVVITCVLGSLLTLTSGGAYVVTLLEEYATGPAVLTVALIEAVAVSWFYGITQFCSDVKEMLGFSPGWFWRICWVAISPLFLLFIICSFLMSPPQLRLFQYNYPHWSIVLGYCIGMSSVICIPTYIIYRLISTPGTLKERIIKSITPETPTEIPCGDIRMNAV
Chain of D(2) dopamine receptor (P61169 whole entry): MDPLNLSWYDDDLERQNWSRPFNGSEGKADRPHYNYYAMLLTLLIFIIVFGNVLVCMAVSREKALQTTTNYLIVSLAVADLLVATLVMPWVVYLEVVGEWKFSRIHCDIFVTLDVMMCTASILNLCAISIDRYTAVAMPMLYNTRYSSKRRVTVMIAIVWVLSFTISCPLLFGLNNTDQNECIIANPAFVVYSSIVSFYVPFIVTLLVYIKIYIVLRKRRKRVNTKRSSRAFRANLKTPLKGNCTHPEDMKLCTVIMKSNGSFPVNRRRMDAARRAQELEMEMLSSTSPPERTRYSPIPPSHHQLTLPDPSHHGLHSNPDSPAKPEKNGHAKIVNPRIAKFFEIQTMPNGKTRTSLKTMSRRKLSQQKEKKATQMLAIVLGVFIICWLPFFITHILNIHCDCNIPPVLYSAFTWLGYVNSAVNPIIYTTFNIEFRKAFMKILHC
Chain of Norepinephrine transporter (Q9WTR4 whole entry): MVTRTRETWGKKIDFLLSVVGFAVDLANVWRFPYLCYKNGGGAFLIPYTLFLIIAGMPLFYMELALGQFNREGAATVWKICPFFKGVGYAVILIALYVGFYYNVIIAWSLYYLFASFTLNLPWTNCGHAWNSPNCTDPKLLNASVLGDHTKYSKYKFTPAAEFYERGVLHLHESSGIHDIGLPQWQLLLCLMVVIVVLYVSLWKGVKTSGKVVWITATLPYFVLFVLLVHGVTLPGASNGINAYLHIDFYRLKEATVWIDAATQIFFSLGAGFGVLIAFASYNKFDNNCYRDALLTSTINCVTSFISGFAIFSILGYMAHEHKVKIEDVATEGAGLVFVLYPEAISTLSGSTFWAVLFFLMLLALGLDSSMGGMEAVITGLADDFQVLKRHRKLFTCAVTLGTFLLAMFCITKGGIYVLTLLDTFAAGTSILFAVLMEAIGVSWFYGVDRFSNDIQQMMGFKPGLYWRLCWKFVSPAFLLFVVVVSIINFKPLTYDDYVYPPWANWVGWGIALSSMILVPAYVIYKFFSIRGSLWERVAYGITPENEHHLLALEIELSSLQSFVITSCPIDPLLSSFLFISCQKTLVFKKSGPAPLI
Chain of Sodium-dependent dopamine transporter (P23977 whole entry): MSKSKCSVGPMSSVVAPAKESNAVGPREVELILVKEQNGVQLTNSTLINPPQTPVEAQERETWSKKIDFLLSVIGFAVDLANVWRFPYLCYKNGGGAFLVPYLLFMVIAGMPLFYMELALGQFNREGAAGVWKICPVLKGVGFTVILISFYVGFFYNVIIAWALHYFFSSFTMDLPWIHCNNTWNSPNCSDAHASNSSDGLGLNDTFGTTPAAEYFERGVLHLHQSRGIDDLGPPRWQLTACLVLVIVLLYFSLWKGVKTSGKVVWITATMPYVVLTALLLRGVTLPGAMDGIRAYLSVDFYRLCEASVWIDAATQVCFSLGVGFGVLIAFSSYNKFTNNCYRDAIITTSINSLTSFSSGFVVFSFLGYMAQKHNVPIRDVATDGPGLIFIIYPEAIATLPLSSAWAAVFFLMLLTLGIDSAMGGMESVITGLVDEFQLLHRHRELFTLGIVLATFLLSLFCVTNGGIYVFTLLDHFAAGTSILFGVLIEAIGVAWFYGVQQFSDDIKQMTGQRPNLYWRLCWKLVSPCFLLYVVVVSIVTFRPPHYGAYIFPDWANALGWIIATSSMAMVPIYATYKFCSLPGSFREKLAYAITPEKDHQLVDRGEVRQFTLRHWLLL

SMILES | IC50 [1] [nM] | Ratio (Rattus norvegicus [2]) | Reduction (Rattus norvegicus [3]) [%] | IC50 [4] [nM] | IC50 (D(2) dopamine receptor) [nM] | ED50 (Mus musculus) [µmol/kg] | ED50 (Rattus norvegicus [5]) [µmol/kg] | Reduction (Rattus norvegicus [6]) [%] | IC50 [7] [nM] | Change (Rattus norvegicus [8]) [%] | Change (Rattus norvegicus [9]) [%] | IC50 [10] [nM] | IC50 [12] [nM] | ED50 (Rattus norvegicus [13]) | further results
O=C1NCCN1CCN1CCN(C2CC(c3ccc(F)cc3)c3ccccc32)CC1 (stereo not drawn) | 33 | 129 | -33 | 4.2 | 930 | > 98 | 3.1 | -43 | – | – | – | – | – | – | –
CN1CCN([C@H]2C[C@H](c3ccc(F)cc3)c3ccc(F)cc32)CC1 | 85 | – | – | 43 | – | 42 | – | – | 81 | 5 | -43 | 610 | 28 | – | Reduction (Rattus norvegicus [11]): -5%; ED50 (Rattus norvegicus [13]; [15]): 0.49 µmol/kg
CN1CCN(CCN2CCN([C@H]3C[C@H](c4ccc(F)cc4)c4ccc(F)cc43)CC2)C1=O | 1300 | – | – | 410 | 8500 | > 91 | – | -1 | – | 72 | -6 | – | – | > 45 µmol/kg | Increase (Rattus norvegicus [3]): 1%
O=C1NCCN1CCN1CCN(C2CCc3ccccc32)CC1 (stereo not drawn) | – | – | – | 5100 | 62000 | > 127 | – | – | – | – | – | – | – | > 8 µmol/kg | Increase (Rattus norvegicus [3]): 5%; Increase (Rattus norvegicus [6]): 6%
O=C1NCCN1CCN1CCN(C2CC(c3ccc(F)cc3)c3ccc(F)cc32)CC1 (stereo not drawn) | 24 | 153 | -13 | 6.5 | 200 | > 47 | 2.6 | -19 | – | – | – | – | – | – | –
CN1CCN([C@@H]2C[C@@H](c3ccc(F)cc3)c3ccc(F)cc32)CC1 | 9.3 | – | – | 4.9 | – | 2.5 | – | – | 1700 | -48 | -79 | 3900 | 12000 | – | Reduction (Rattus norvegicus [11]): -28%; ED50 (Rattus norvegicus [13]; [15]): 0.13 µmol/kg
OCCN1CCN([C@@H]2C[C@@H](c3ccc(F)cc3)c3ccc(C(F)(F)F)cc32)CC1 (racemic) [TEFLUDAZINE] | 17 | 69 | -18 | 8.4 | 16 | 0.071 | 2.4 | -24 | – | – | – | – | – | – | ED50 (Rattus norvegicus [14]): 0.035 µmol/kg
O=C1NCCN1CCN1CCN([C@@H]2C[C@@H](c3ccc(F)cc3)c3ccccc32)CC1 (stereo in doubt; 27) [IRINDALONE] | 670 | – | – | 520 | 4600 | – | – | – | 100 | – | – | > 100000 | 44 | >196 µM/kg | Change (Rattus norvegicus [8]; […]): 33%; Change (Rattus norvegicus [9]; 0.02 mg/kg): -3%; Reduction (Rattus norvegicus [11]; 5 mg/kg): -3%
O=C1NCCN1CCN1CCN([C@@H]2C[C@@H](c3ccc(F)cc3)c3ccccc32)CC1 (stereo in doubt; (+)2) [IRINDALONE] | 26 | 171 | – | 3.4 | – | > 72 | 0.77 | – | 25000 | – | – | 14000 | 22000 | 0.56 µM/kg | Change (Rattus norvegicus [8]; […]): -42%; Change (Rattus norvegicus [9]; 0.02 mg/kg): -85%; ED50 (Rattus norvegicus [14]): 0.0045 µmol/kg; Reduction (Rattus norvegicus [11]; 5 mg/kg): -48%
